In patent publication US12344606B2, “Next-generation modulators of stimulator of interferon genes (STING)” (RYVU THERAPEUTICS S.A., priority 2019, dated 2025):

Experiments:
human STING = human STING (Homo sapiens, UniProt Q86WV6); assay: Fluorescence Thermal Shift assay (hSTING FTS binding assay); conditions: STING 0.1 mg/ml, 20 min preincubation, SyproOrange
Description: Compounds of the present invention were tested for binding to human STING in Fluorescence Thermal Shift assay. STING was preincubated with the compounds for 20 minutes in 50 mM Hepes, 150 mM NaCl, pH 7.5 in 16 μl volume, following by adding 4 μl of SyproOrange dye dilution (ThermoFisher, cat no. S-6651). Final STING concentration was 0.1 mg/ml. Thermal unfolding was performed in Real-Time PCR QuantStudio 6 Flex System (Applied Biosystems), from 25 to 99° C., with continuous ramp mode and ramp rate 0.033° C./s. The data were analyzed using Protein Thermal Shift Software (ThermoFisher).

[1] = test system: NF-κB pathway in THP-1 dual cells; assay: THP-1 Dual reporter assay, NF-κB pathway (SEAP); type: cell-based; conditions: Homo sapiens, THP1-Dual; 18 h stimulation, absorbance; read-out: THP1 Dual EC50 (μM) NFkB
Description: (§1) Compounds of the present invention were tested for their activity using THP-1 dual cells (Invivogen, cat no. thpd-nfis) allowing for simultaneous study of NF-κB pathway and the interferon regulatory factor (IRF) pathway. THP-1 dual cells contain luciferase reporter gene under the control of an ISG54 (interferon-stimulated gene) minimal promoter in conjunction with five interferon-stimulated response elements and a secreted embryonic alkaline phosphatase reporter gene under the control an IFN (interferon)-β minimal promoter fused to five copies of the NF-κB consensus transcriptional response element with three copies of the c-Rel binding site. Following 18 h of stimulation with STING agonist, medium was collected and transferred onto fresh cell culture plate. To verify activity of the IRF pathway, luminescence activity was measured with standard laboratory plate reader immediately after addition 10 μl of the medium to 50 μl (or 40 μl) of luminescence reagent (Invivogen, cat. No. rep-qlc2). To verify activity of NF-κB pathway, 20 μl (or 10 μl) of the medium was mixed with 80 μl of a detection medium (Invivogen, cat. No. rep-qb2) and incubated for 2 hours (or 1 hour) at 37° C. in a humidified atmosphere containing 5% CO2. Next, absorbance at 630 nm (or 655 nm) was recorded using standard laboratory plate reader.

[2] = test system: interferon regulatory factor (IRF) pathway in THP-1 dual cells; assay: THP-1 Dual reporter assay, IRF pathway (luciferase); type: cell-based; conditions: Homo sapiens, THP1-Dual; 18 h stimulation, luminescence
Description: as §1

human STING, sequence (Q86WV6 whole entry H232R): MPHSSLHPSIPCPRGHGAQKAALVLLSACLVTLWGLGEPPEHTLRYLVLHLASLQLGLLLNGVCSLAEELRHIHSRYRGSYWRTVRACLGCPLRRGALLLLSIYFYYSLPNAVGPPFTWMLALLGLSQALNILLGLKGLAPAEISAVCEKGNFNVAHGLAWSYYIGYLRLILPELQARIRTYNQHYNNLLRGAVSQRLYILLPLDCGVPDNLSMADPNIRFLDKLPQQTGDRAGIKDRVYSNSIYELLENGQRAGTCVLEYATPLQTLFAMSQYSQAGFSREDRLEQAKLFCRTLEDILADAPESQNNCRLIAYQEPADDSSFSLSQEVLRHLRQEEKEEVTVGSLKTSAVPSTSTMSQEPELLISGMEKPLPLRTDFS

Row | hSTING FTS binding assay (ΔT C.°) (human STING) | EC50 [1] | EC50 [2] | Compound
1 | ++ (ΔTm>10° C.) | ≤ 1 µM | ≤ 1 µM | Cc1cc(CN(Cc2cn(C)c3ccccc3c2=O)C2CCCN(c3cccnc3)C2)ccn1 (stereo not drawn) [Example 2, 1-methyl-3-({[(2-methylpyridin-4-yl)methyl][1-(pyridin-3-yl)piperidin-3-yl]amino}methyl)-1,4-dihydroquinolin-4-one]
2 | + (ΔTm<10° C.) | ≥ 10 µM | ≥ 10 µM | COc1cc(CN(Cc2cn(C)c3ccccc3c2=O)C2CCCN(c3cccnn3)C2)ccn1 (stereo not drawn) [Example 3, 3-({[(2-methoxypyridin-4-yl)methyl][1-(pyridazin-3-yl)piperidin-3-yl]amino}methyl)-1-methyl-1,4-dihydroquinolin-4-one]
3 | + (ΔTm<10° C.) | 1 to 10 µM | 1 to 10 µM | COc1cc(CN(Cc2cn(C)c3ccccc3c2=O)C2CCCN(c3cnccn3)C2)ccn1 (stereo not drawn) [Example 4, 3-({[(2-methoxypyridin-4-yl)methyl][1-(pyrazin-2-yl)piperidin-3-yl]amino}methyl)-1-methyl-1,4-dihydroquinolin-4-one]
4 | ++ (ΔTm>10° C.) | ≤ 1 µM | ≤ 1 µM | Cc1cc(CN(Cc2cn(C)c3ccccc3c2=O)[C@H]2CCCN(c3cccnc3)C2)ccn1 [Example 5, 1-methyl-3-({[(2-methylpyridin-4-yl)methyl][(3S)-1-(pyridin-3-yl)piperidin-3-yl]amino}methyl)-1,4-dihydroquinolin-4-one]
5 | ++ (ΔTm>10° C.) | ≤ 1 µM | ≤ 1 µM | COc1cc(CN(Cc2c[nH]c3ccccc3c2=O)[C@H]2CCCN(c3cccnc3)C2)ccn1 [Example 6, 3-({[(2-methoxypyridin-4-yl)methyl][(3S)-1-(pyridin-3-yl)piperidin-3-yl]amino}methyl)-1,4-dihydroquinolin-4-one]
6 |  | ≤ 1 µM | ≤ 1 µM | Cc1ccc(N2CCC[C@H](N(Cc3ccnc(C)c3)Cc3cn(C)c4ccccc4c3=O)C2)cn1 [Example 7, 1-methyl-3-({[(3S)-1-(6-methylpyridin-3-yl)piperidin-3-yl][(2-methylpyridin-4-yl)methyl]amino}methyl)-1,4-dihydroquinolin-4-one]
7 | + (ΔTm<10° C.) | ≥ 10 µM | ≥ 10 µM | COc1ncc(N2CCC[C@H](N(Cc3ccnc(C)c3)Cc3cn(C)c4ccccc4c3=O)C2)cn1 [Example 8, 3-({[(3S)-1-(2-methoxypyrimidin-5-yl)piperidin-3-yl][(2-methylpyridin-4-yl)methyl]amino}methyl)-1-methyl-1,4-dihydroquinolin-4-one]
8 | ++ (ΔTm>10° C.) | ≤ 1 µM | ≤ 1 µM | COc1cc(CN(Cc2cn(C3CC3)c3cc(N4CCN(C)CC4)c(F)cc3c2=O)[C@H]2CCCN(c3cccnc3)C2)ccn1 [Example 9, 1-cyclopropyl-6-fluoro-3-({[(2-methoxypyridin-4-yl)methyl][(3S)-1-(pyridin-3-yl)piperidin-3-yl]amino}methyl)-7-(4-methylpiperazin-1-yl)-1,4-dihydroquinolin-4-one]
9 |  | 1 to 10 µM | 1 to 10 µM | Cc1cc(CN(Cc2cn(C)c3ccccc3c2=O)[C@H]2CCCN(c3cc(Cl)ncn3)C2)ccn1 [Example 17, 3-({[(3S)-1-(6-chloropyrimidin-4-yl)piperidin-3-yl][(2-methylpyridin-4-yl)methyl]amino}methyl)-1-methyl-1,4-dihydroquinolin-4-one]
10 | + (ΔTm<10° C.) |  |  | Cc1cc(CN(Cc2cn(C)c3ccccc3c2=O)[C@H]2CCCN(c3ccnc(Cl)n3)C2)ccn1 [Example 19, 3-({[(3S)-1-(2-chloropyrimidin-4-yl)piperidin-3-yl][(2-methylpyridin-4-yl)methyl]amino}methyl)-1-methyl-1,4-dihydroquinolin-4-one]
11 |  | ≤ 1 µM | ≤ 1 µM | Cc1cc(CN(Cc2cn(C3CC3)c3cc(Cl)c(F)cc3c2=O)[C@H]2CCCN(c3cccnc3)C2)ccn1 [Example 33, 7-chloro-1-cyclopropyl-6-fluoro-3-({[(2-methylpyridin-4-yl)methyl][(3S)-1-(pyridin-3-yl)piperidin-3-yl]amino}methyl)-1,4-dihydroquinolin-4-one]
12 |  | 1 to 10 µM | 1 to 10 µM | Cc1cc(CN(Cc2cn(C)c3ccccc3c2=O)[C@H]2CCCN(c3ccnc(Cl)n3)C2)ccn1 [Example 54, 3-({[(3S)-1-(2-chloropyrimidin-4-yl)piperidin-3-yl][(2-methylpyridin-4-yl)methyl]amino}methyl)-1-methyl-1,4-dihydroquinolin-4-one]
13 |  | ≤ 1 µM | ≤ 1 µM | Cc1ccc(N2CCC[C@H](N(Cc3ccnc(C)c3)Cc3cn(C4CC4)c4cc(C5=CCCCC5)c(F)cc4c3=O)C2)cn1 [Example 57, 7-(cyclohex-1-en-1-yl)-1-cyclopropyl-6-fluoro-3-({[(3S)-1-(6-methylpyridin-3-yl)piperidin-3-yl][(2-methylpyridin-4-yl)methyl]amino}methyl)-1,4-dihydroquinolin-4-one]
14 |  | ≤ 1 µM | ≤ 1 µM | Cc1ccc(N2CCC[C@H](N(Cc3ccnc(C)c3)Cc3cn(C)c4c(Br)cccc4c3=O)C2)cn1 [Example 60, 8-bromo-1-methyl-3-({[(3S)-1-(6-methylpyridin-3-yl)piperidin-3-yl][(2-methylpyridin-4-yl)methyl]amino}methyl)-1,4-dihydroquinolin-4-one]
15 |  | ≤ 1 µM | ≤ 1 µM | Cc1ccc(N2CCC[C@H](N(Cc3ccnc(C)c3)Cc3cn(C(C)C)c4nc(Cl)c(F)cc4c3=O)C2)cn1 [Example 61, 7-chloro-6-fluoro-3-({[(3S)-1-(6-methylpyridin-3-yl)piperidin-3-yl][(2-methylpyridin-4-yl)methyl]amino}methyl)-1-(propan-2-yl)-1,4-dihydro-1,8-naphthyridin-4-one]
16 |  | ≤ 1 µM | ≤ 1 µM | COc1nc2c(cc1F)c(=O)c(CN(Cc1ccnc(C)c1)[C@H]1CCCN(c3ccc(C)nc3)C1)cn2C(C)C [Example 62, 6-fluoro-7-methoxy-3-({[(3S)-1-(6-methylpyridin-3-yl)piperidin-3-yl][(2-methylpyridin-4-yl)methyl]amino}methyl)-1-(propan-2-yl)-1,4-dihydro-1,8-naphthyridin-4-one]
17 |  | ≥ 10 µM | 1 to 10 µM | Cc1cc(CN(Cc2cn(C)c3ccccc3c2=O)[C@H]2CCCN(c3cccnc3)C2)n(C)n1 [Example 63, 3-({[(1,3-dimethyl-1H-pyrazol-5-yl)methyl][(3S)-1-(pyridin-3-yl)piperidin-3-yl]amino}methyl)-1-methyl-1,4-dihydroquinolin-4-one]
18 |  | ≤ 1 µM | ≤ 1 µM | Cc1ccc(N2CCC[C@H](N(Cc3ccnc(C)c3)Cc3cn(C4CC4)c4cc(C5COCCN5)ccc4c3=O)C2)cn1 (stereo partly drawn) [Example 64, 1-Cyclopropyl-3-({[(3S)-1-(6-methylpyridin-3-yl)piperidin-3-yl][(2-methylpyridin-4-yl)methyl]amino}methyl)-7-(morpholin-3-yl)-1,4-dihydroquinolin-4-one]
